Measurements from patent US20090036544A1, “METHODS AND COMPOSITIONS FOR INHIBITING THE PROLIFERATION OF PROSTATE CANCER CELLS” (priority 2001, published 2009).

What was measured:
LNCaP cells = assay: Cell proliferation assay (MTS) in LNCaP cells; assay type: cell-based, human; settings: five days
Method: (§1) A human prostate cancer cell line, LNCaP (American Type Culture Collection (ATCC), Manassas, Va.), was grown in RPMI 1640 medium (Mediatech, Herndon, Va.) supplemented with 5% fetal bovine serum (FBS) and 5% CO2 at 37° C. until reaching approximately 50-70% confluence. The media were changed to serum-free RPMI 1640 at 24 hrs prior to performing experiments to deplete undesired steroids. Cells were then treated with 5% charcoal-stripped FBS RPMI 1640 containing POH (all from Sigma (St. Louis, Mo.), dissolved in DMSO) at indicated concentrations with or without 1 nM of mibolerone (Mib) (from New England Nuclear (St. Louis, Mo.), dissolved in ethanol), a non-metabolizable synthetic androgen. Equivalent amounts of solvent were added to control cells.
(§2) LNCaP cells were seeded at 4×10^4/well in 24-well dishes and treated with POH at indicated concentrations in the presence of 1 nM Mib. Five days later, cell proliferation was measured using an MTS assay kit (Promega, Madison, Wis.), and PSA and hK2 levels in spent media were determined by the Tandem-E PSA kit (Hybritech Inc., San Diego, Calif.) or Mayo's hK2 assay (Zhang et al., 1999, Endocrin., 140:1665-71). Protein levels of PSA and hK2 were normalized to the MTS measurements.

androgen receptor [1] = assay: Transient transfection luciferase reporter assay, 3 copies of hK2 ARE, in LNCaP cells; assay type: cell-based, human; settings: minimum SV40 promoter and 3 copies of hK2 ARE, 1 nM Mib, 24 hrs, FIG. 3B
Description: (§3) The 6 Kb PSA promoter and the androgen receptor promoter constructs (pGL3 SV40, pGL3 SV40-3 ARE, pGL3 or PSA promoter/pGL3) were described previously (Id). To make an hk2 androgen responsive element (hk2 ARE) construct, a DNA fragment containing three copies of hk2 ARE (5′-[…]-3′ (SEQ ID NO:1)) was synthesized by the Mayo Molecular Core Facility. The synthesized fragment, including SacI and XhoI restriction enzyme sites at the 5′ and 3′-end, respectively, was digested with SacI and XhoI according to manufacturer's instructions and inserted into a pre-cut pGL3-Promoter vector (Promega). The fidelity of this construct was confirmed by DNA sequencing.
(§4) LNCaP cells in duplicate plates were co-transfected with a CMV-β galactosidase (β-gal) expression vector (0.3 μg/plate) and one of the following: a pGL3-Basic luciferase vector (Promega) containing the PSA promoter (nucleotides 1-5836 of GenBank Accession No. U37672), a pGL3-Promoter luciferase vector (Promega) containing three copies of hk2 ARE, a PGL3 vector or PSA promoter/PGL3 vector. Transfections were performed using a liposome method with dimethyldioctadecyl-ammonium bromide (Sigma) and L-lecithin (Sigma) (4:10). Cells were then treated with POH in the presence or absence of 1 nM Mib for 24 hrs. Cell extracts were prepared and used for luciferase and β-gal assays (Promega). […]

c-jun = assay: Expression of c-jun protein after POH treatment; assay type: cell-based; settings: normalized data, FIG. 6
Method: In order to ascertain how androgen receptor function was being inhibited by POH at levels below 1 μM, c-jun was examined. […] The graph depicts the normalized data. This experiment was repeated twice and representative data is shown.

[2] = system: androgen receptor promoter; assay: Luciferase reporter assay with androgen receptor promoter in LNCaP cells; assay type: cell-based, human
Description: as §3, §4

PSA = PSA quantification in spent media of LNCaP cells (Tandem-E PSA kit); assay type: cell-based, human; settings: 1 nM Mib, five days, normalized to MTS; FIG. 2A
Method: as §1, §2

androgen receptor [3] = assay: Western blot analysis of androgen receptor protein in LNCaP cells; assay type: cell-based, human; settings: POH until a concentration of 1 μM is reached, 1 nM Mib, 24 hrs
Method: LNCaP cells were treated with the indicated concentrations of POH in the presence of 1 nM Mib for 24 hrs. Cells were then harvested, and whole-cell lysates and nuclear extracts were prepared as described (Mitchell et al., 1999, Cancer Res., 59:5892-5). Western blot analysis was performed according to the protocol described (Id). A mouse antibody against the human androgen receptor (1:1000 or 1:2000 dilution) (Pharmingen, San Diego, Calif.) or human tubulin (1:10,000 dilution) (Santa Cruz, Santa Cruz, Calif.) was used as the primary antibody. Ponceau S staining was used for monitoring protein loading and transfer efficiency (Id).

hK2 = hK2 quantification in spent media of LNCaP cells (Mayo's hK2 assay); assay type: cell-based, human; settings: 1 nM Mib, five days, normalized to MTS; FIG. 2B
Method: as §1, §2

androgen receptor [4] = assay: Transient transfection luciferase reporter assay, PSA promoter, in LNCaP cells; assay type: cell-based, human; settings: 1 nM Mib, 24 hrs, FIG. 3A
Description: as §3, §4

Structure (SMILES) | LNCaP cell proliferation (LNCaP cells; presence of Mib (1 nM), FIG. 1) | ARE-regulated luciferase activity (androgen receptor [1]) | level of c-jun (c-jun) | androgen receptor promoter activity ([2]; POH at 1 μM) | androgen receptor promoter activity ([2]; POH below 1 μM) | accumulation of PSA protein in LNCaP cells stimulated by androgens (PSA) | androgen-enhanced androgen receptor protein levels (androgen receptor [3]) | accumulation of hK2 protein in LNCaP cells stimulated by androgens (hK2) | proliferation of LNCaP cells (LNCaP cells; POH in the presence of 1 nM Mib, p<0.05, FIG. 1) | androgenic inducibility of the PSA promoter (luciferase reporter) (androgen receptor [4])
C[C@@H]1CC2=CC(=O)CC[C@@H]2[C@H]2CC[C@@]3(C)[C@@H](CC[C@]3(C)O)[C@@H]21 [Mib, mibolerone] | significantly increased | – | – | – | – | – | – | – | – | –
C=C(C)[C@@H]1CC=C(CO)CC1 [POH, Perillyl alcohol] | – | inhibited | up to 3.5 times the control levels | drastically reduced | not affected | inhibited | not affected | inhibited | significantly inhibited | significantly reduced
